This note sets out measurements from ChEMBL document CHEMBL1158124, “Engineering of the spinosyn PKS: directing starter unit incorporation” (2006).

Converted amounts (≈) assume the structure as drawn.

Holding throughout (format): functional
The subject of one assay is Heliothis virescens. Put plainly: Insecticidal activity against tobacco budworm assessed per larva.
A further assay has as its system Spodoptera exigua. Put plainly: Insecticidal activity against beet armyworm assessed as mortality per larva after 5 days.
Another assay relates to Trichoplusia ni. Put plainly: Insecticidal activity against cabbage looper assessed as mortality per larva after 5 days.
The next assay concerns Aphis gossypii. Put plainly: Insecticidal activity against cotton aphid assessed as count of nonwinged stage live aphid after 72 hrs with 24 hrs of photoperiod prior to grading.
A further assay concerns Myzus persicae. Put plainly: Insecticidal activity against green peach aphid assessed as count of nonwinged stage live aphid after 72 hrs with 24 hrs of photoperiod prior to grading.
In another assay the test system is Bemisia tabaci. Put plainly: Insecticidal activity against sweet potato whitefly assessed as larval survival after 13 days. The note with it: 312 h.
The next assay deals with Tetranychus urticae. Put plainly: Insecticidal activity against two-spotted spinder mites assessed as count of live mites after 4 days with low light condition. The conditions noted are these: 96 h.

Regarding `CO[C@@H]1[C@@H](OC)[C@H](C)O[C@@H](O[C@H]2C[C@H]3[C@@H]4C=C5C(=O)[C@H](C)[C@@H](O[C@H]6CC[C@H](N(C)C)[C@@H](C)O6)CCC[C@H](C(C)C)OC(=O)C[C@H]5[C@@H]4C=C[C@@H]3C2)[C@@H]1OC` [21-DESETHYL-21-ISOPROPYLSPINOSYN A], the LC50 in the assay with Heliothis virescens amounted to 0.02 µg; in the assay on Spodoptera exigua it was 0.123 µg; in the assay on Trichoplusia ni it was 0.022 µg.

As for `CC[C@H]1CCC[C@H](O[C@H]2CC[C@H](N(C)C)[C@@H](C)O2)[C@@H](C)C(=O)C2=C[C@@H]3[C@@H](C=C(C)[C@@H]4C[C@@H](O[C@@H]5O[C@@H](C)[C@H](OC)[C@@H](OC)[C@H]5OC)C[C@@H]34)[C@@H]2CC(=O)O1` [SPINOSYN D], the LC50 in the assay with Aphis gossypii worked out at 50 µg/mL (≈ 67 µM); in the assay with Myzus persicae, 50 µg/mL (≈ 67 µM); with Bemisia tabaci it was 1.7 µg/mL (≈ 2.28 µM); with Tetranychus urticae, 19 µg/mL (≈ 25.5 µM).

Regarding `CC[C@H]1CCC[C@H](O[C@H]2CC[C@H](N(C)C)[C@@H](C)O2)[C@@H](C)C(=O)C2=C[C@@H]3[C@@H](C=C[C@@H]4C[C@@H](O[C@@H]5O[C@@H](C)[C@H](OC)[C@@H](OC)[C@H]5OC)C[C@@H]34)[C@@H]2CC(=O)O1` [SPINOSYN A], the LC50 with Aphis gossypii was determined as 65 µg/mL (≈ 88.8 µM); in the assay on Myzus persicae, 50 µg/mL (≈ 68.3 µM); in the assay on Bemisia tabaci it was 20 µg/mL (≈ 27.3 µM); in the assay on Heliothis virescens it was 0.03 µg; in the assay on Spodoptera exigua, 0.63 µg; with Trichoplusia ni, 0.03 µg. For the same compound, the LC50 in the assay on Tetranychus urticae stood at 5.3 µg/mL (≈ 7.24 µM).

For the compound `CO[C@@H]1[C@@H](OC)[C@H](C)O[C@@H](O[C@H]2C[C@H]3[C@@H]4C=C5C(=O)[C@H](C)[C@@H](O[C@H]6CC[C@H](N(C)C)[C@@H](C)O6)CCC[C@H](C6CCC6)OC(=O)C[C@H]5[C@@H]4C=C(C)[C@@H]3C2)[C@@H]1OC`, the LC50 in the assay on Aphis gossypii is 15 µg/mL (≈ 19.4 µM); in the assay on Myzus persicae, greater than 50 µg/mL; with Bemisia tabaci, 13.5 µg/mL (≈ 17.5 µM); with Heliothis virescens, 0.016 µg; with Spodoptera exigua, 0.385 µg; in the assay on Trichoplusia ni, 0.01 µg.

With `CO[C@@H]1[C@@H](OC)[C@H](C)O[C@@H](O[C@H]2C[C@H]3[C@@H]4C=C5C(=O)[C@H](C)[C@@H](O[C@H]6CC[C@H](N(C)C)[C@@H](C)O6)CCC[C@H](C)OC(=O)C[C@H]5[C@@H]4C=C[C@@H]3C2)[C@@H]1OC` [SPINOSYN E], the LC50 with Aphis gossypii was greater than 50 µg/mL; in the assay on Myzus persicae it was greater than 50 µg/mL; in the assay with Bemisia tabaci it was 3.9 µg/mL (≈ 5.43 µM); in the assay on Tetranychus urticae, 10 µg/mL (≈ 13.9 µM).

Turning to `CO[C@@H]1[C@@H](OC)[C@H](C)O[C@@H](O[C@@H]2C[C@H]3CC[C@@H]4[C@@H](C=C5C(=O)[C@H](C)[C@@H](O[C@H]6CC[C@H](N(C)C)[C@@H](C)O6)CCC[C@H](C6CCC6)OC(=O)C[C@H]54)[C@@H]3C2)[C@@H]1OC` [5,6-DIHYDRO-21-DESETHYL-21-CYCLOBUTYLSPINOSYN A], the LC50 is 1.7 µg/mL (≈ 2.24 µM) in the assay with Aphis gossypii; greater than 50 µg/mL in the assay on Myzus persicae; 0.7 µg/mL (≈ 0.921 µM) in the assay on Bemisia tabaci; 0.02 µg in the assay on Heliothis virescens; 0.134 µg with Spodoptera exigua; 0.013 µg in the assay with Trichoplusia ni.

As to `CO[C@@H]1[C@@H](OC)[C@H](C)O[C@@H](O[C@H]2C[C@H]3[C@@H]4C=C5C(=O)[C@H](C)[C@@H](O[C@H]6CC[C@H](N(C)C)[C@@H](C)O6)CCC[C@H](C6CC6)OC(=O)C[C@H]5[C@@H]4C=C[C@@H]3C2)[C@@H]1OC` [21-DESETHYL-21-CYCLOPROPYLSPINOSYNS A], the LC50 with Aphis gossypii was 46 µg/mL (≈ 61.8 µM); in the assay on Myzus persicae, greater than 50 µg/mL; in the assay with Bemisia tabaci it was greater than 50 µg/mL; in the assay with Heliothis virescens, 0.125 µg; in the assay with Spodoptera exigua it was 1 µg; with Trichoplusia ni it was 0.157 µg. In addition, in the assay on Tetranychus urticae, the LC50 is greater than 50 µg/mL.

Regarding `CCC[C@H]1CCC[C@H](O[C@H]2CC[C@H](N(C)C)[C@@H](C)O2)[C@@H](C)C(=O)C2=C[C@@H]3[C@@H](C=C[C@@H]4C[C@@H](O[C@@H]5O[C@@H](C)[C@H](OC)[C@@H](OC)[C@H]5OC)C[C@@H]34)[C@@H]2CC(=O)O1` [21-DESETHYL-21-N-PROPYLSPINOSYN A], the LC50 in the assay with Aphis gossypii is 27.3 µg/mL (≈ 36.6 µM); with Myzus persicae it was greater than 50 µg/mL; in the assay on Bemisia tabaci, greater than 50 µg/mL; in the assay with Heliothis virescens it was 0.025 µg; in the assay with Spodoptera exigua, 0.031 µg; with Trichoplusia ni, 0.004 µg. Also, the LC50 with Tetranychus urticae was less than 50 µg/mL.

Regarding `CO[C@@H]1[C@@H](OC)[C@H](C)O[C@@H](O[C@H]2C[C@H]3[C@@H]4C=C5C(=O)[C@H](C)[C@@H](O[C@H]6CC[C@H](N(C)C)[C@@H](C)O6)CCC[C@H](C6CCC6)OC(=O)C[C@H]5[C@@H]4C=C[C@@H]3C2)[C@@H]1OC` [21-DESETHYL-21-CYCLOBUTYLSPINOSYNS A], the LC50 in the assay on Aphis gossypii was 3 µg/mL (≈ 3.96 µM); in the assay with Myzus persicae, greater than 50 µg/mL; in the assay on Bemisia tabaci it was 55 µg/mL (≈ 72.6 µM); in the assay on Heliothis virescens it was 0.013 µg; in the assay with Spodoptera exigua, greater than 1 µg; in the assay on Trichoplusia ni it was 0.124 µg. Moreover, the LC50 in the assay with Tetranychus urticae is greater than 50 µg/mL.
